# Target: human recombinant ATX (Homo sapiens, UniProt Q13822)
# Assay: Autotaxin (ATX) activity Quanta Red assay
# Assay type: biochemical
# Conditions: Table 2: additional compounds tested for ATX activity (Quanta Red Assay); read-out: Activity
# Procedure: The reaction was stopped after 2 hours with a 20 μL addition of Quanta Red Stop solution (1:20 dilution in distilled water). The above-described mixture with DMSO alone was used as a positive control whereas that with DMSO alone without ATX was taken as a negative control.
# Fluorescence was determined in a BMG Labtech Pherastar plus plate reader ([…]). Data were analysed using Excel fit software. IC50 values were determined in duplicate.
row,IC50,Compound
1,29 nM,"O=C(CCc1nc2cccnc2n1Cc1ccccc1)NCc1ccc(Cl)cc1 [Example 217, 3-(3-Benzyl-3H-imidazo[4,5-b]pyridin-2-yl)-N-(4-chloro-benzyl)-propionamide]"

# Same assay, conditions: Table 3: commercially available compounds tested for Autotaxin activity (Quanta Red assay); read-out: Activity
row,IC50,Compound
1,473 nM,"COc1ccc(CNC(=O)CCc2nc3cccnc3n2Cc2ccccc2)cc1 [Example 238, 3-(3-Benzyl-3H-imidazo[4,5-b]pyridin-2-yl)-N-(4-methoxy-benzyl)-propionamide, reference compound]"

# Same assay, conditions: human recombinant ATX 0.8 μg/mL, 2 hours at room temperature, IC50 determined in duplicate; read-out: Activity (ATX activity, Quanta Red assay; IC50)
row,IC50,Compound
1,10 nM,"C[C@H](NC(=O)NCc1nc2cccnc2n1Cc1ccc(F)cc1)c1ccc(Cl)cc1 [Example 157, 1-[(S)-1-(4-Chloro-phenyl)-ethyl]-3-[3-(4-fluoro-benzyl)-3H-imidazo[4,5-b]pyridin-2-ylmethyl]-urea]"

# Same assay, conditions: read-out: Activity (ATX activity, Quanta Red assay; IC50)
row,IC50,Compound
1,10 nM,"C[C@H](NC(=O)CCc1cc2cccnc2n1Cc1ccc(Cl)cc1)c1ccc(F)cc1 [Example 138, 3-[1-(4-Chloro-benzyl)-1H-pyrrolo[2,3-b]pyridin-2-yl]-N-[(S)-1-(4-fluoro-phenyl)-ethyl]-propionamide]"
2,471 nM,"O=C(CCc1nc2cccnc2n1Cc1ccc(OC(F)(F)F)cc1)N[C@@H](Cc1ccc(O)cc1)C(=O)O [Example 200, (S)-3-(4-Hydroxy-phenyl)-2-{3-[3-(4-trifluoromethoxy-benzyl)-3H-imidazo[4,5-b]pyridin-2-yl]-propionylamino}-propionic acid]"
3,30 nM,"CS(=O)(=O)N1CCC(CNC(=O)CCc2nc3cccnc3n2Cc2ccc(OC(F)(F)F)cc2)CC1 [Example 214, N-(1-methanesulfonyl-piperidin-4-ylmethyl)-3-[3-(4-trifluoromethoxy-benzyl)-3H-imidazo[4,5-b]pyridin-2-yl]-propionamide]"
4,650 nM,"COc1ccc(Cn2c(CCC(=O)NCc3cccc(C)c3)nc3cccnc32)cc1 [Example 115, 3-[3-(4-Methoxy-benzyl)-3H-imidazo[4,5-b]pyridin-2-yl]-N-(3-methyl-benzyl)-propionamide]"
5,69 nM,"COc1ccc(Cn2c(CCC(=O)N(C)[C@@H](C)c3ccccc3)nc3cccnc32)cc1 [Example 104, 3-[3-(4-Methoxy-benzyl)-3H-imidazo[4,5-b]pyridin-2-yl]-N-methyl-N-((S)-1-phenyl-ethyl)-propionamide]"
6,3 nM,C[C@H](NC(=O)CCc1nc2cccnc2n1Cc1ccc(F)c(F)c1)c1ccc(N2CCC(N(C)C)C2)cc1 (some centres unmarked) [Example 177]
7,88 nM,"COc1ccc(Cn2c(CCC(=O)NCc3ccc4c(ccn4C)c3)nc3cccnc32)cc1 [Example 105, 3-[3-(4-Methoxy-benzyl)-3H-imidazo[4,5-b]pyridin-2-yl]-N-(1-methyl-1H-indol-5-ylmethyl)-propionamide]"
8,2 nM,"COc1ccc(CNC(=O)CCc2nc3cccnc3n2Cc2ccc(OC(F)(F)F)cc2)cc1 [Example 14, N-(4-Methoxy-benzyl)-3-[3-(4-trifluoromethoxy-benzyl)-3H-imidazo[4,5-b]pyridin-2-yl]-propionamide]"
9,20 nM,"C[C@H](NC(=O)CCc1nc2cccnc2n1Cc1ccc(F)c(F)c1)c1ccc(N2CC[C@@H](O)C2)cc1 [Example 190, 3-[3-(3,4-Difluoro-benzyl)-3H-imidazo[4,5-b]pyridin-2-yl]-N-{(S)-1-[4-((R)-3-hydroxy-pyrrolidin-1-yl)-phenyl]-ethyl}-propionamide]"
10,269 nM,"Cc1ccc2nc(CCC(=O)N[C@@H](C)c3ccc(F)cc3)n(Cc3ccc(F)cc3)c2n1 [Example 121, 3-[3-(4-fluoro-benzyl)-5-methyl-3H-imidazo[4,5-b]pyridin-2-yl]-N—[(S)-1-(4-fluoro-phenyl)-ethyl]-propionamide]"
11,1 nM,"O=C(CCc1nc2cccnc2n1Cc1ccc(OC(F)(F)F)cc1)N[C@@H](C(=O)O)C1CCCCC1 [Example 194, (R)-cyclohexyl-{3-[3-(4-trifluoromethoxy-benzyl)-3H-imidazo[4,5-b]pyridin-2-yl]-propionylamino}-acetic Acid]"
